Data as given in patent US20110070320A1, “BIODEGRADABLE THERMORESPONSIVE 3-ARM POLYETHYLENE GLYCOL POLY(LACTIDE-CO-GLYCOLIDE) COPOLYMER FOR GINSENG ADMINISTRATION” (priority 2009, published 2011).

Columns and labels:
Format in all cases: physicochemical
[1] = Doxorubicin release from copolymer aqueous gel; conditions: 37° C.; 20% (w/w) copolymer gel; FIG. 3
Description: Doxorubicin was used as a hydrophilic drug in a drug release study using the copolymer of EXAMPLE 1 in a 20% (w/w) aqueous solution. The drug (4 mg) was dissolved in 2 ml of the polymer solution. The drug/polymer solution was filtered through a 0.2 μm syringe and an aliquot of 0.5 ml of the solution was added to each sample vial. The triplet samples were placed in a water bath preheated and stabilized at 37° C. After 10 min a buffer solution of 1×PBS (1 ml, preheated at 37° C.) was added to each sample vial containing a gelled drug/polymer solution. The drug contents in the release media, which were removed and replaced with fresh PBS solutions at each sampling point, were determined at 1, 3, 6 h and then daily for 8 days by a spectrophotometer (SpecraMax M2 by Molecular Devices).

[2] = Paclitaxel release from copolymer aqueous gel; conditions: 37° C.; 20% (w/w) copolymer gel; FIG. 2
Description: Paclitaxel was used as a hydrophobic drug in a drug release study using the copolymer of EXAMPLE 1 in a 20% (w/w) aqueous solution. The drug (4 mg) was added to a 4 ml vial containing 0.2 ml of the polymer solution. At 4° C. the sample vial was sonicated for 15 min and vortexed for 16 h and sonicated for 15 min again to give a slightly cloudy suspension. After filtered through a 0.2 μm syringe filter an aliquot (0.2 ml) of the solution was added to each sample vial. The triplet samples were placed in a water bath preheated and stabilized at 37° C. After 10 min a buffer solution of 1×PBS (3 ml, preheated at 37° C.) containing 2.4% (w/w) of Tween 80 and 4% (w/w) of Cremophor EL was added to each sample vial containing a gelled drug/polymer solution. The drug release was determined by taking an aliquot of the medium from each sample vial at 1.5 h, 6 h and then daily for 10 days and analyzing the drug content of the sample by HPLC (mobile phase 1 ml/min 50/50 acetonitrile/deioned water, wavelength 227 nm, running time 15 min).

[3] = Enhanced drug solubility in polymer gel (HPLC); conditions: aqueous solution of Example 1 polymer (20% w/w); filtered 0.2 μm
Description: In a 4 ml vial the polymer from EXAMPLE 1 (200 mg) and paclitaxel (2 mg) were dissolved in acetone (1·ml). The mixture was evaporated under vacuum for 16 h. Deionized water (0.8 ml) was added and the mixture was stirred at 4° C. for 24 h. The resulting solution was filtered through a 0.2 μm syringe filter to give a clear solution. An aliquot of the solution was diluted 100-fold with acetonitrile and analyzed for paclitaxel by HPLC (mobile phase: water/acetonitrile 1:1, 1 ml/min, injection volume: 20 μl, running time: 15 min, column: Waters Symmetry 300™ 4.6×250 mm, C18 5 μm, detector: Waters 2996).

Structure (SMILES) | duration of controlled drug release from copolymer aqueous gel [1] | duration of controlled drug release from copolymer aqueous gel [2] | paclitaxel content in the aqueous solution [3]
COc1cccc2c1C(=O)c1c(O)c3c(c(O)c1C2=O)C[C@@](O)(C(=O)CO)C[C@@H]3O[C@H]1C[C@H](N)[C@H](O)[C@H](C)O1 [doxorubicin, Doxorubicin] | 8 days | – | –
CC(=O)O[C@H]1C(=O)[C@@]2(C)[C@H]([C@H](OC(=O)c3ccccc3)[C@]3(O)C[C@H](OC(=O)[C@H](O)[C@@H](NC(=O)c4ccccc4)c4ccccc4)C(C)=C1C3(C)C)[C@]1(OC(C)=O)CO[C@@H]1C[C@@H]2O [paclitaxel, Paclitaxel] | – | 10 days | 6.4 mg/mL
